Results taken from patent publication US20090220562A1, “Osteogenic and anti-adipogenic oxysterols” (priority 2005, published 2009).

Key:
Type in all cases: cell-based, mouse
osteocalcin mRNA = assay: Northern blotting for osteocalcin mRNA in M2-10B4 cells; conditions: for levels of osteocalcin mRNA relative to the control: 5 μM, eight days, M2-10B4
Description: RNA isolation and Northern blot analysis—Following treatment of cells under appropriate experimental conditions, total RNA was isolated using the RNA isolation kit from Stratagene (La Jolla, Calif., U.S.A.). Total RNA ([…]) was run on a 1% agarose/formaldehyde gel and transferred to Duralon-UV membranes (Strategene, CA, U.S.A.) and cross-linked with UV light. The membranes were hybridized overnight at 60 degree C. with ^32P-labeled mouse osteocalcin cDNA probe, mouse lipoprotein lipase (LPL), mouse adipocyte protein 2 (aP^2) PCR-generated probes, human 28S or 18S rRNA probes obtained from Geneka Biotechnology (Montreal, Quebec, Canada) and Maxim Biotech (San Francisco, Calif., U.S.A.), respectively. The PCR products were generated using primer sets synthesized by Invitrogen (Carlsbad, Calif., U.S.A.) with the following specifications: mouse aP2 gene (accession no. M13261); sense (75-95) 5′-[…]-3′, antisense (362-383) 5′-[…]-3′, generating a PCR product of 309 base pairs. Mouse LPL (accession no. XM—134193); sense (1038-1058) 5′-[…]-3′, antisense (1816-1836) 5′-[…]-3′, generating a PCR product of 799 base pairs. The PCR products were gel-purified and sequenced by the UCLA sequencing core, showing the highest similarity to their respective GenBank entries. Following hybridization, the blots were washed twice at room temperature with 2×SSC+0.1% SDS, and then twice at 60 degree C. with 0.5×SSC+0.1% SDS, and exposed to X-ray film. The extent of gene induction was determined by densitometry.
After 4 and 8 days, total RNA from duplicate samples was isolated and analyzed for osteocalcin (Osc) and 28S rRNA expression by Northern blotting as described. FIG. 3E is a radiogram of Northern blotting for osteocalcin mRNA in M2 cells exposed to a control or combination of oxysterols for 4 or 8 days. FIG. 3F is a bar graph depicting the relative demsometric units of osteocalcin mRNA in M2 cells exposed to a control or combination of oxysterols for 4 -or 8 days. Data from densitometric analysis of the Northern blot is shown in (F) as the average of duplicate samples, normalized to 28S rRNA.
(§1) Next, a combination of 22R and 20S oxysterols (RS, 2.5 μM each) were added in the presence or absence of SC as indicated. After 3 days, ALP activity was measured as described earlier. […] (B) M2 cells were treated as described in (A) and after 10 days matrix mineralization in cultures was quantified by a ^45Ca incorporation assay as described earlier. […] (C) M2 cells were pretreated with 20 μM SC for 4 hours, followed by the addition of RS in the presence or absence of SC as described above. After 8 days, total RNA was isolated and analyzed for osteocalcin (Osc) and […] expression by Northern blotting as previously described. Data from densitometric analysis of the Northern blot is shown in (D) as the average of duplicate samples, normalized to 18S rRNA. (E) M2 cells at confluence were pretreated for 2 hours with control vehicle (C), or PLA2 inhibitors ACA (25 μM) and AACOCF3 (AAC, 20 μM), in osteogenic medium. Next, a combination of 22R and 20S oxysterols (RS, 2.5 μM) was added in the presence or absence of the inhibitors as indicated. After 3 days, ALP activity was measured as previously described. […] (F) M2 cells were treated as described in (E). After 10 days, matrix mineralization in cultures was quantified using a ^45Ca incorporation assay as previously described. Results from a representative of three experiments are shown, reported as the mean of quadruplicate determinations ±SD, normalized to protein concentration (p<0.01 for RS vs. RS+ACA and RS+AAC).
ALP activity was measured after 2 days, as described. […] (B) M2 cells were treated as described in (A). After 10 days, matrix mineralization in cultures was quantified using a ^45Ca incorporation assay as described. […] (C) M2 cells were treated under similar conditions as those described above. […]

marrow stromal cells = assay: Osteogenic differentiation of marrow stromal cells (marker not specified: ALP activity, osteocalcin mRNA, mineral formation)
Description: The purpose of the study was to identify other osteogenic and anti-adipogenic oxysterols based on the chemical structure of previously identified oxysterols. The ability of such candidate oxysterol molecules to induce the formation of osteoblastic cells in cultures of marrow stromal cells (which are progenitors of osteoblastic cells that make bone) were tested. In order to assess osteogenic differentiation of cells, one or more markers of osteogenic differentiation were measured in untreated cells and cells treated with the test oxysterols. These markers included: alkaline phosphatase activity, osteocalcin mRNA expression and mineral formation in cultures of marrow stromal cells. Activation of either one or more than one marker by a single or combination oxysterols is indicative of their osteogenic property.

M2 cells = assay: Troglitazone-induced adipogenesis in M2 cells (oil Red O staining, adipocyte count); conditions: Tro 10 μM, oxysterol 10 μM, 10 days, alone or in combination
Description: (§2) Von Kossa and oil red O staining—Matrix mineralization in cell monolayers was detected by silver nitrate staining as previously described. Oil red O staining for detection of adipocytes was performed as previously described.
Test 1: M2 cells at 90% confluence were treated with vehicle (C), PPAR-γ activator, troglitazone 10 μM (Tro), alone or in combination with 10 μM oxysterols 20S-, 22R-, or 25S-hydroxycholesterol. After 8 days, adipocytes were identified by oil Red 0 staining and quantified by counting under a phase contrast microscope. FIG. 6A is a bar graph depicting the effect of oxysterols on reducing adipogenesis of MSC.
Test 2: (A) M2 cells at confluence were treated in RPMI containing 10% FBS with control vehicle or 10 μM troglitazone (Tro) in the absence or presence of 10 μM 20S or 22S-hydroxycholesterol. After 10 days, adipocytes were visualized by oil Red O staining and quantified by light microscopy, shown in (B). […] (C) M2 cells were treated at confluence with 10 μM Tro, alone or in combination with 10 μM 20S oxysterol. After 10 days, total RNA was isolated and analyzed for lipoprotein lipase (LPL), adipocyte P2 gene (aP2) or 18S rRNA expression by Northern blotting as described (Ref). Data from densitometric analysis of the Northern blot is shown in (D) as the average of duplicate samples, normalized to 18S rRNA.

[1] = test system: M2-10B4 marrow stromal cells; assay: Alkaline phosphatase (ALP) activity assay on whole cell extracts of M2-10B4 marrow stromal cells; conditions: for Enzyme Activity (units/mg total cellular protein) ± SD, alkaline phosphatase: oxysterols 5 μM, 4 days, M2-10B4, untreated 6 ± 3
Description: (§3) Cells: M2-10B4 mouse marrow stromal cell line obtained from American Type Culture Collection (ATCC, Rockville, Md., U.S.A.) was derived from bone marrow stromal cells of a (C57BL/6J x C3H/HeJ) Fl mouse, and support human and murine myelopoiesis in long-term cultures (as per ATCC) and have the ability to differentiate into osteoblastic and adipocytic cells. Unless specified, these cells were cultured in RPMI 1640 containing 10% heat-inactivated FBS, and supplemented with 1 mM sodium pyruvate, 100 U/ml penicillin, and 100 U/ml streptomycin (all from Irvine Scientific).
Cells were always treated at 90% confluence. […]
as §1, with “Results from a representative of three experiments are shown, reported as the mean of quadruplicate determinations ±SD, normalized to protein concentration (p<0.01 for RS vs. RS+ACA and RS+AAC).” left out

[2] = test system: M2-10B4 marrow stromal cells; assay: Matrix mineralization (45Ca incorporation assay, von Kossa staining) in M2-10B4 marrow stromal cells; conditions: pretreatment; cyclopamine 1-10 μM, DKK-1 1 μg/ml
Description: as §3, §2
^45Ca incorporation assay—Matrix mineralization in cell monolayers was quantified using the ^45Ca incorporation assay as previously described.
After 14 days, mineralization was identified by a von Kossa staining, which appears black. FIG. 3C is a depiction of von Kossa staining of M2 cells exposed to various conditions.
After 14 days, matrix mineralization in cultures was quantified using a ^45Ca incorporation assay.
as §1
(A) M2 cells at confluence were pretreated for four hours with RPMI containing 1% FBS, followed by treatment with control vehicle or 5 μM 20S oxysterol for 1, 4, or 8 hours. Next total cell extracts were prepared and analyzed for levels of native or phosphorylated ERK (pERK) using specific antibodies as previously described. Data from a representative of four experiments are shown, each treatment shown in duplicate samples. (B) M2 cells at confluence were pretreated for 2 hours with control vehicle (C) or 20 μM PD98059 (PD) in osteogenic medium as previously described. Next, a combination of 22R and 20S oxysterols (RS, 5 μM each) were added to appropriate wells as indicated. After 10 days of incubation, matrix mineralization was quantified by the ^45Ca incorporation assay as previously described. […] (C) M2 cells at confluence were pretreated for 2 hours with 20 µM PD98059 (PD) in RPMI containing 5% FBS. Next, the cells were treated with control vehicle (C), 10 μM troglitazone (Tro), or 10 μM of 20S or 22S oxysterols, alone or in combination as indicated. After 10 days, adipocytes were visualized by oil Red O staining and quantified by light microscopy as previously described. […]

Runx2 = Runx2 DNA binding and protein expression in M2-10B4 cells; conditions: pretreatment; cyclopamine 1-10 μM; DKK-1 1 μg/ml (Runx2 protein expression only)
Description: Method: Marrow stromal cells (M2-10B4 (M2)) were treated with doses of 5-15 μM 20S-hydroxycholestrol.
Method: Marrow stromal cells (M2-10B4 (M2)) were treated with doses of 5-15 μM20S-hydroxycholestrol. Groups of cells were pre-treated with 22S or 22R.
Method: Marrow stromal cells (M2-10B4 (M2)) were pretreated with Wnt signaling inhibitor, DKK-1 (1 μg/ml), then treated with 20S-hydroxycholestrol and 22(8)-hydroxycholesterol.

Question: With `CC(C)CCC[C@@H](C)[C@H]1CC[C@H]2[C@@H]3CC=C4[C@@H](O)[C@@H](O)CC[C@]4(C)[C@H]3CC[C@]12C` [4beta-hydroxycholesterol] as the molecule, how does the “levels of osteocalcin mRNA relative to the control” value (osteocalcin mRNA) read?
Answer: moderate increase

Question: And the “osteogenic property, alone or in combination with originally described oxysterols” value (from here on “osteogenic property”) (marrow stromal cells)?
Answer: osteoinductive

Question: For `CC(C)CCC[C@@H](C)[C@H]1CC[C@H]2[C@@H]3C(=O)C=C4C[C@@H](O)CC[C@]4(C)[C@H]3CC[C@]12C` [7-ketocholesterol, reference compound], which “effect on troglitazone-induced adipogenesis” value (M2 cells) is on record?
Answer: unable to inhibit adipogenesis

Question: What about the “induction of alkaline phosphatase activity” value ([1]; 10 μM oxysterol, 3 days, osteogenic medium) of the same molecule?
Answer: did not induce

Question: How did the “osteogenic property” value (marrow stromal cells) turn out when `CC(C)[C@@H](O)CC[C@@H](C)[C@H]1CC[C@H]2[C@@H]3CC=C4C[C@@H](O)CC[C@]4(C)[C@H]3CC[C@]12C` [24-hydroxycholesterol, 24(S)-hydroxycholesterol] was run?
Answer: osteoinductive

Question: What about the “Enzyme Activity (units/mg total cellular protein) ± SD, alkaline phosphatase” value [1] of the same molecule?
Answer: 250 ± 20 units/mg total cellular protein

Question: With `C[C@H](CC[C@@H]1OC1(C)C)[C@H]1CC[C@H]2[C@@H]3CC=C4C[C@@H](O)CC[C@]4(C)[C@H]3CC[C@]12C` [24S,25-epoxycholesterol] as the molecule, how does the “levels of osteocalcin mRNA relative to the control” value (osteocalcin mRNA) read?
Answer: increased

Question: And the “osteogenic property” value (marrow stromal cells)?
Answer: osteoinductive

Question: What about the “Enzyme Activity (units/mg total cellular protein) ± SD, alkaline phosphatase” value [1] of the same molecule?
Answer: 1,588 ± 19^ units/mg total cellular protein

Question: Which “effect on SS-induced osteocalcin mRNA expression” value (osteocalcin mRNA; pretreatment, cyclopamine 1-10 μM, DKK-1 1 μg/ml) does the source give for `CC1=C2C[C@H]3[C@@H](CC=C4C[C@@H](O)CC[C@@]43C)[C@@H]2CC[C@]12O[C@@H]1C[C@H](C)CN[C@H]1[C@H]2C` [cyclopamine, reference compound] here?
Answer: inhibited

Question: And the “effect on SS-induced mineralization” value [2]?
Answer: inhibited

Question: And the “effect on SS-induced Runx2 DNA binding and protein expression” value (Runx2)?
Answer: inhibited
